25 compounds from patent publication US9586949B2, “Aza-heteroaryl compounds as PI3K-gamma inhibitors” (Incyte Corporation, priority 2015, dated 2017) can be followed below.

Structures are written as SMILES. Counter-ions that a name gives are not always drawn.

Assay [1] concerns the target PI3Kδ (p110δ/p85α) Recombinant Human Protein (Homo sapiens (Human), UniProt O00329). The assay can be described thus: PI3Kδ Scintillation Proximity Assay. Type of assay: biochemical. The note with it: 20 μM PIP2, 2 μM ATP, 3.4 nM PI3Kδ, 120 min; read-out: PI3K-delta SPA IC50. From the text: [γ-^33P]ATP (10 mCi/mL) and Wheat Germ Agglutinin (WGA) YSi SPA Scintillation Beads was purchased from Perkin-Elmer (Waltham, Mass.). Lipid kinase substrate, D-myo-Phosphatidylinositol 4,5-bisphosphate (PtdIns(4,5)P2)D (+)-sn-1,2-di-O-octanoylglyceryl, 3-O-phospho linked (PIP2), CAS 204858-53-7, was purchased from Echelon Biosciences (Salt Lake City, Utah). PI3Kδ (p110δ/p85α) Recombinant Human Protein was purchased from Eurofins (St Charles, Mo.). ATP, MgCl2, DTT, EDTA, MOPS and CHAPS were purchased from Sigma-Aldrich (St. Louis, Mo.).
(§1) The kinase reaction was conducted in polystyrene 384-well Greiner Bio-one white plate from Thermo Fisher Scientific in a final volume of 25 μL. Inhibitors were first diluted serially in DMSO and added to the plate wells before the addition of other reaction components. The final concentration of DMSO in the assay was 2%. The PI3Kδ assay was carried out at room temperature in 20 mM MOPS, pH 6.7, 10 mM MgCl2, 5 mM DTT and CHAPS 0.03%. Reactions were initiated by the addition of ATP, the final reaction mixture consisted of 20 μM PIP2, 2 μM ATP, 0.5 μCi [γ-^33P] ATP, 3.4 nM PI3Kδ. Reactions were incubated for 120 min and terminated by the addition of 40 μL SPA beads suspended in quench buffer: 163 mM potassium phosphate pH 7.8, 20% glycerol, 25 mM EDTA. The final concentration of SPA beads is 1.0 mg/mL. After the plate sealing, plates were shaken overnight at room temperature and centrifuged at 1500 rpm for 10 min, the radioactivity of the product was determined by scintillation counting on Topcount (Perkin-Elmer). IC50 determination was performed by fitting the curve of percent of the solvent control activity versus the log of the inhibitor concentration using the GraphPad Prism 6.0 software.

Assay [2] concerns the target PI3Kγ (p110γ) Recombinant Human Protein (Homo sapiens (Human), UniProt P48736). The experiment in a line: PI3K-γ Scintillation Proximity Assay. The note with it: 20 μM PIP2, 2 μM ATP, 13 nM PI3Kγ, 120 min; read-out: PI3K-gamma SPA IC50. The assay is classed as biochemical. How it is done: [γ-^33P]ATP (10 mCi/mL) and Wheat Germ Agglutinin (WGA) YSi SPA Scintillation Beads was purchased from Perkin-Elmer (Waltham, Mass.). […] PI3Kγ (p110γ) Recombinant Human Protein was purchased from Life technology (Grand Island, N.Y.). ATP, MgCl2, DTT, EDTA, MOPS and CHAPS were purchased from Sigma-Aldrich (St. Louis, Mo.).
as §1, with “PI3Kγ” for “PI3Kδ”, “ATP, 3.4 nM PI3Kδ. Reactions were incubated for 120 min and terminated by the addition of 40 μL SPA beads suspended in quench buffer: 163 mM potassium phosphate pH 7.8, 20% glycerol, 25 mM EDTA.” left out
(In general: SPA uses beads or plates that emit light when radiolabelled molecules are held near them.)

Chain of PI3Kγ (p110γ) Recombinant Human Protein (P48736 whole entry): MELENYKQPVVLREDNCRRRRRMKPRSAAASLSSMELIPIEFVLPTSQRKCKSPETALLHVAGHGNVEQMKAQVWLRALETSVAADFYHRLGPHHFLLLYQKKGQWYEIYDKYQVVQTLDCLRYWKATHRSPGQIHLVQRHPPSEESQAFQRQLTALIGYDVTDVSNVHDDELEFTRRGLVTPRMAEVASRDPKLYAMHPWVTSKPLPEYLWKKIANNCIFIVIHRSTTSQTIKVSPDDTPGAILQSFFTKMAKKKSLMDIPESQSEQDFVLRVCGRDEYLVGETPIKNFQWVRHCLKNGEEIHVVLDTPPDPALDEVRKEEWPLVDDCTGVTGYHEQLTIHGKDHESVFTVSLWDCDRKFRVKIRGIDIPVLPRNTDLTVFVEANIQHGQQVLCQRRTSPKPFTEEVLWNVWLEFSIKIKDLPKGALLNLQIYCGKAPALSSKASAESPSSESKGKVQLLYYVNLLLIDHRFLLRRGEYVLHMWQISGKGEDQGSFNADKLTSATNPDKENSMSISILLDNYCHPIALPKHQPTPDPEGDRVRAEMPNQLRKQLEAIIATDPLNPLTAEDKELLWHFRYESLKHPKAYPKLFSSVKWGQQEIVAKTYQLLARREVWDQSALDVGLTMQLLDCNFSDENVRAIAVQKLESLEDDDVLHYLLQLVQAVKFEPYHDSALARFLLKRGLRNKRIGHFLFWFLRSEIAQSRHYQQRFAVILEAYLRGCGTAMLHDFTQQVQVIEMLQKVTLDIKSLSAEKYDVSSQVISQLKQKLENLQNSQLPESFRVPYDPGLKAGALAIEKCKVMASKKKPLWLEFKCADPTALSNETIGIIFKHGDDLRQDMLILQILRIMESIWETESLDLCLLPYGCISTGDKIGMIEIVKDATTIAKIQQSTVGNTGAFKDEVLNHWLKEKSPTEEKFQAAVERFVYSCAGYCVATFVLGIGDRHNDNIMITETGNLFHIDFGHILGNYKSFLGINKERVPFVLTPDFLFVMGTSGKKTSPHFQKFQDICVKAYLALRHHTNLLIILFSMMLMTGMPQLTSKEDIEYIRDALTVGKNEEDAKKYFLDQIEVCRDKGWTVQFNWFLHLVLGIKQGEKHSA
Chain of PI3Kδ (p110δ/p85α) Recombinant Human Protein (O00329 whole entry): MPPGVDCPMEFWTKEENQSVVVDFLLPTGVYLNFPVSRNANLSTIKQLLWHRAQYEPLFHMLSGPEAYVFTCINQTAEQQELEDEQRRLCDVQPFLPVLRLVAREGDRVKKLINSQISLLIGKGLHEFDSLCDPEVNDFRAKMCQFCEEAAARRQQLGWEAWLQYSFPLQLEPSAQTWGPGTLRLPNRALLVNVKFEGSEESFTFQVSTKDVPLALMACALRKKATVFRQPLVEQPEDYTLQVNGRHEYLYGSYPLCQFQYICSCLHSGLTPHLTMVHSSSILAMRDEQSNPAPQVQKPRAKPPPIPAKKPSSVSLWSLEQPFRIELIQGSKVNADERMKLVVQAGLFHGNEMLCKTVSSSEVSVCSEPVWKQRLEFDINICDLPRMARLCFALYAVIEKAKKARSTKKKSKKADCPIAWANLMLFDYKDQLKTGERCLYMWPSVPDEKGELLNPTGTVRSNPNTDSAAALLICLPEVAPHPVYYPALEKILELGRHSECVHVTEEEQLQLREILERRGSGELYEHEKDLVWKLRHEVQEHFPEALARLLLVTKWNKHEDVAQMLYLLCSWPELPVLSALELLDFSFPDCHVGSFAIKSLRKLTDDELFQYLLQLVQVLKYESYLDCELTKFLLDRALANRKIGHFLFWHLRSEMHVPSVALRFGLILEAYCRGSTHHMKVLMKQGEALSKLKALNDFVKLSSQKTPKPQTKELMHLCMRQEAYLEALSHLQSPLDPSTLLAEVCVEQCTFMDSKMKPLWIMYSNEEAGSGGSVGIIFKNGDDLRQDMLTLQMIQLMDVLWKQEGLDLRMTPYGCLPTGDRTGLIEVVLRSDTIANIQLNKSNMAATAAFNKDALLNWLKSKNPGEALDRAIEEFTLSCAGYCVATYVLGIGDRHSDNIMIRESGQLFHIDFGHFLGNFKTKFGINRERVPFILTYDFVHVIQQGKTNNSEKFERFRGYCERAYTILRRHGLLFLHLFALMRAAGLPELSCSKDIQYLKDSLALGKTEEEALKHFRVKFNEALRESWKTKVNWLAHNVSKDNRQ
Chain of PI3Kδ (p110δ/p85α) Recombinant Human Protein (P27986 whole entry partner): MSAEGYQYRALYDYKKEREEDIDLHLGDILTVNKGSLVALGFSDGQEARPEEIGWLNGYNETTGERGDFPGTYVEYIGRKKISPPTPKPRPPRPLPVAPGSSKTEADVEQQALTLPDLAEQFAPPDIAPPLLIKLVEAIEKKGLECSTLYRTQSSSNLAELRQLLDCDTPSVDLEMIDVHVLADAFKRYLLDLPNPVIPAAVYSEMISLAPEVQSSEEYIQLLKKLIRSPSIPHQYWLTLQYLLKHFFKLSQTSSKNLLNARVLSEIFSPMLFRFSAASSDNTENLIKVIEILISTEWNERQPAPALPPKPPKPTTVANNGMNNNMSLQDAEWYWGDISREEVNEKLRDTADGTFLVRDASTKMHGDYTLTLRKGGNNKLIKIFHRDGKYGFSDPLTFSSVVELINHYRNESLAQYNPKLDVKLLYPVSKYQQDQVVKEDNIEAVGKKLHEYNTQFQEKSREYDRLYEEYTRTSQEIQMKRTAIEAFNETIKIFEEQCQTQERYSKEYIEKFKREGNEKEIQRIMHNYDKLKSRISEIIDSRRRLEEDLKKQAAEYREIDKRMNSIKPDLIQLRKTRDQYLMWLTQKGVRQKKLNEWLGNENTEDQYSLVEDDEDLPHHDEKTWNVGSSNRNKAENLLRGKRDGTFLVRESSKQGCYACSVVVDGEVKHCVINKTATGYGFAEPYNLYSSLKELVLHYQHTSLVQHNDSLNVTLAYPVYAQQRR

On to `COc1cncc(-c2ccc3nc(-c4ncc[nH]4)oc3c2)c1` [Example 1, 2-(1H-Imidazol-2-yl)-6-(5-methoxypyridin-3-yl)benzo[d]oxazole trifluoroacetate], for which the IC50 in assay [1] was less than 5000 nM; in assay [2] it was less than 1000 nM.

In the case of `COc1cncc(-c2ccc3nc(-c4cnc[nH]4)oc3c2)c1` [Example 2, 2-(1H-Imidazol-5-yl)-6-(5-methoxypyridin-3-yl)benzo[d]oxazole trifluoroacetate], the IC50 in assay [1] and in assay [2] was less than 5000 nM each time.

`COc1cncc(-c2ccc3nc(-c4ccc[nH]4)oc3c2)c1` [Example 3, 6-(5-Methoxypyridin-3-yl)-2-(1H-pyrrol-2-yl)benzo[d]oxazole trifluoroacetate]: the IC50 in assay [1] and in assay [2] was less than 5000 nM throughout.

In the case of `COc1cncc(-c2ccc3nc(-c4nc5ccccc5[nH]4)oc3c2)c1` [Example 4, 2-(1H-Benzo[d]imidazol-2-yl)-6-(5-methoxypyridin-3-yl)benzo[d]oxazole trifluoroacetate], the IC50 in assay [1] is less than 5000 nM; in assay [2], less than 250 nM.

On to `COc1cncc(-c2ccc3nc(-c4cc5ccccc5[nH]4)oc3c2)c1` [Example 5, 2-(1H-Indol-2-yl)-6-(5-methoxypyridin-3-yl)benzo[d]oxazole trifluoroacetate], for which the IC50 in assay [1] was less than 1000 nM; in assay [2], less than 250 nM.

For `COc1cncc(-c2ccc3nc(-c4nc5ccccc5[nH]4)sc3c2)c1` [Example 6, 2-(1H-Benzo[d]imidazol-2-yl)-6-(5-methoxypyridin-3-yl)benzo[d]thiazole trifluoroacetate], the results for the IC50 in assay [1] and in assay [2] were no less than 5000 nM and greater than 5000 nM, respectively.

Take `COc1cncc(-c2ccc3nc(-c4nc5ccccc5[nH]4)ccc3c2)c1` [Example 7, 2-(1H-Benzo[d]imidazol-2-yl)-6-(5-methoxypyridin-3-yl)quinoline]: the IC50 in assay [1] is no less than 5000 nM; in assay [2] it was less than 1000 nM.

Take `COc1cncc(-c2ccc3nc(-c4nc5ccc(Br)cc5[nH]4)oc3c2)c1` [Example 8, 2-(6-Bromo-1H-benzo[d]imidazol-2-yl)-6-(5-methoxypyridin-3-yl)benzo[d]oxazole]: the IC50 in assay [2] was less than 1000 nM.

On to `COc1cncc(-c2ccc3nc(-c4nc5cc(F)ccc5[nH]4)oc3c2)c1` [Example 10, 2-(5-Fluoro-1H-benzo[d]imidazol-2-yl)-6-(5-methoxypyridin-3-yl)benzo[d]oxazole], for which the IC50 in assay [1] was no less than 5000 nM; in assay [2], less than 1000 nM.

Take `COc1cncc(-c2ccc3nc(-c4nc5cc(C)ccc5[nH]4)oc3c2)c1` [Example 11, 6-(5-Methoxypyridin-3-yl)-2-(5-methyl-1H-benzo[d]imidazol-2-yl)benzo[d]oxazole]: the IC50 in assay [1] is less than 5000 nM; in assay [2] it was less than 250 nM.

In the case of `COc1cncc(-c2ccc3nc(-c4nc5c(C)cccc5[nH]4)oc3c2)c1` [Example 12, 6-(5-Methoxypyridin-3-yl)-2-(4-methyl-1H-benzo[d]imidazol-2-yl)benzo[d]oxazole], the IC50 in assay [1] was no less than 5000 nM; in assay [2] it was less than 250 nM.

`Brc1ccc2nc(-c3nc4ccccc4[nH]3)oc2c1` [Example 13, 2-(1H-Benzo[d]imidazol-2-yl)-6-bromobenzo[d]oxazole]: the IC50 in assay [1] is no less than 5000 nM; in assay [2], less than 5000 nM.

Take `Oc1cncc(-c2ccc3nc(-c4nc5ccccc5[nH]4)oc3c2)c1` [Example 14, 5-(2-(1H-Benzo[d]imidazol-2-yl)benzo[d]oxazol-6-yl)pyridin-3-ol]: the values for the IC50 in assay [1] and in assay [2] were less than 5000 nM and less than 250 nM, respectively.

As for `CC(C)Oc1cncc(-c2ccc3nc(-c4nc5ccccc5[nH]4)oc3c2)c1` [Example 15, 2-(1H-Benzo[d]imidazol-2-yl)-6-(5-isopropoxypyridin-3-yl)benzo[d]oxazole], the IC50 in assay [1] is less than 5000 nM; in assay [2] it was less than 1000 nM.

Consider `FC(F)Oc1cncc(-c2ccc3nc(-c4nc5ccccc5[nH]4)oc3c2)c1` [Example 16, 2-(1H-Benzo[d]imidazol-2-yl)-6-(5-(difluoromethoxy)pyridin-3-yl)benzo[d]oxazole], for which the IC50 was less than 1000 nM in assay [1] and less than 250 nM in assay [2].

As for `O=S(=O)(Nc1cncc(-c2ccc3nc(-c4nc5ccccc5[nH]4)oc3c2)c1)c1ccc(F)cc1` [Example 17, N-(5-(2-(1H-Benzo[d]imidazol-2-yl)benzo[d]oxazol-6-yl)pyridin-3-yl)-4-fluorobenzenesulfonamide], the IC50 in assay [1] and in assay [2] was less than 250 nM throughout.

As to `O=S(=O)(Nc1cncc(-c2ccc3nc(-c4nc5ccccc5[nH]4)oc3c2)c1)c1cccc(F)c1` [Example 19, N-(5-(2-(1H-Benzo[d]imidazol-2-yl)benzo[d]oxazol-6-yl)pyridin-3-yl)-3-fluorobenzenesulfonamide], the IC50 in assay [1] and in assay [2] was less than 250 nM in each case.

Take `O=S(=O)(Nc1cncc(-c2ccc3nc(-c4nc5ccccc5[nH]4)oc3c2)c1)N1CCCCC1` [Example 20, N-(5-(2-(1H-Benzo[d]imidazol-2-yl)benzo[d]oxazol-6-yl)pyridin-3-yl)piperidine-1-sulfonamide]: the IC50 in assay [1] is less than 1000 nM; in assay [2], less than 250 nM.

Turning to `CN(C)S(=O)(=O)Nc1cncc(-c2ccc3nc(-c4nc5ccccc5[nH]4)oc3c2)c1` [Example 21, N′-{5-[2-(1H-Benzimidazol-2-yl)-1,3-benzoxazol-6-yl]-pyridin-3-yl}-N,N-dimethylsulfamide], the IC50 was less than 1000 nM in assay [1] and less than 250 nM in assay [2].

With `Cc1ncc(-c2ccc3nc(-c4nc5ccccc5[nH]4)oc3c2)cc1NS(=O)(=O)N(C)C` [Example 22, N′-{5-[2-(1H-Benzimidazol-2-yl)-1,3-benzoxazol-6-yl]-2-methylpyridin-3-yl}-N,N-dimethylsulfamide], the IC50 in assay [1] and in assay [2] was less than 250 nM in each case.

As for `CN(C)S(=O)(=O)Nc1cc(-c2ccc3nc(-c4nc5ccccc5[nH]4)oc3c2)cnc1F` [Example 23, N′-{5-[2-(1H-Benzimidazol-2-yl)-1,3-benzoxazol-6-yl]-2-fluoropyridin-3-yl}-N,N-dimethylsulfamide], the IC50 in assay [1] and in assay [2] was less than 250 nM in each case.

Regarding `CC(C)S(=O)(=O)Nc1cncc(-c2ccc3nc(-c4nc5ccccc5[nH]4)oc3c2)c1` [Example 24, N-(5-(2-(1H-Benzo[d]imidazol-2-yl)benzo[d]oxazol-6-yl)pyridin-3-yl)propane-2-sulfonamide], the values for the IC50 in assay [1] and in assay [2] were less than 5000 nM and less than 250 nM, respectively.

Regarding `CCS(=O)(=O)Nc1cc(-c2ccc3nc(-c4nc5ccccc5[nH]4)oc3c2)cnc1C` [Example 25, N-(5-(2-(1H-Benzo[d]imidazol-2-yl)benzo[d]oxazol-6-yl)-2-methylpyridin-3-yl)ethanesulfonamide], the IC50 in assay [1] and in assay [2] was less than 250 nM throughout.

`CCS(=O)(=O)Nc1cc(-c2ccc3nc(-c4nc5ccccc5[nH]4)oc3c2)cnc1Cl` [Example 26, N-(5-(2-(1H-Benzo[d]imidazol-2-yl)benzo[d]oxazol-6-yl)-2-chloropyridin-3-yl)ethanesulfonamide]: the values for the IC50 in assay [1] and in assay [2] were no less than 5000 nM and less than 250 nM, respectively.

As for `CCS(=O)(=O)Nc1cc(-c2ccc3nc(-c4nc5ccccc5[nH]4)oc3c2)cnc1F` [Example 27, N-(5-(2-(1H-Benzo[d]imidazol-2-yl)benzo[d]oxazol-6-yl)-2-fluoropyridin-3-yl)ethanesulfonamide], the IC50 in assay [1] is less than 1000 nM; in assay [2], less than 250 nM.
